Results from patent US12528812B2 (Genentech, Inc., priority 2020, dated 2026).
pIC50, pKi: −log10 of the molar value.

Experiments:
[1] = target: T1, recombinant human JAK1 kinase domain protein (Residues 854-1154) (Homo sapiens, UniProt P23458); test: JAK1 biochemical assay (LabChip mobility shift, Ki); conditions: read-out: Biochem JAK1 Ki
T1 construct: human JAK1 kinase domain protein (Residues 854-1154); purchased Proteros Biostructures GmbH (Martinsried, Germany); host or cells: insect cells
T1 sequence (P23458 854-1154): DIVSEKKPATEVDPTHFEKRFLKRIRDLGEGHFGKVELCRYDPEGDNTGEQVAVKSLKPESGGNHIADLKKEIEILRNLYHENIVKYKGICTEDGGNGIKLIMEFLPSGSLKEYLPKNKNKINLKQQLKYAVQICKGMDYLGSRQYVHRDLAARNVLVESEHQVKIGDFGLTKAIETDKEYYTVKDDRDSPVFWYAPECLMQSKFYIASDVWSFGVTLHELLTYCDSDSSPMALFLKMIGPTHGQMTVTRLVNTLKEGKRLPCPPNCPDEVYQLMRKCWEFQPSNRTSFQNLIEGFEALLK

[2] = test system: IL-13-stimulated STAT6 phosphorylation in human lung bronchial epithelial BEAS-2B cell line; test: P-STAT6 BEAS-2B + IL-13 cell assay; assay type: cell-based; conditions: Homo sapiens, BEAS-2B, BEAS2B cells, IL13 stimulation; read-out: Cellular JAK1 PSTAT6 BEAS2B + IL13
Protocol: In order to study the effect of JAK1 inhibitors in a cell line that is relevant to the cell biology of human asthma, an IL-13-stimulated STAT6 phosphorylation assay in the human lung bronchial epithelial BEAS-2B cell line was developed.
BEAS-2B cells (ATCC′ CRL-9609™) were grown in Bronchial Epithelial Growth Medium (BEGM) (Lonza Catalog No. CC-3170; Walkersville, MD; or PromoCell Catalog No. C-21060; Heidelberg, Germany). Test compound stock solutions (0.5 mM in DMSO) were serially diluted 1:2 in DMSO to generate a 10-point concentration curve (at 500× test concentration), which was further diluted by a 50-fold dilution step in BEGM to generate a 10× concentration curve (in 2% DMSO). Cells were plated at 100,000 cells/well in 200 μL of BEGM in 96-well plates and incubated for 48 hours at 37° C. in a humidified incubator. Medium was aspirated from the cells and replaced with 70 μL of fresh BEGM. Diluted test compound (10 μL; or 2% DMSO in assay medium) was added to the cells, and the plates were incubated for 1 hour at 37° C. in a humidified incubator. Twenty μL of 250 ng/mL human recombinant IL-13 (Bio Techne Catalog No. 213-ILB) was then added to the cells and incubated for 15 minutes at 37° C. Medium was aspirated from the cells and 60 μL of ice-cold 1× cell lysis buffer (Cell Signaling Technologies; Catalog No. 9803S) containing 1 mM PMSF was added to the cells. Assay plates were incubated at −80° C. for at least 1 hour. P-STAT6 was measured by coating GAR plates (MSD; Catalog No. L45RA-1) with rabbit anti-human total STAT6 antibody (Cell Signaling Technologies; Catalog No. 9362S), incubating the cell lysates in the coated plates overnight at 4° C., and then detecting with mouse anti-phospho-STAT6 (Tyr641) Clone 16E12 antibody (Millipore; Catalog No. 05-590, custom labeled by MSD with SULFO-tag) using standard MSD plate processing, washing, and detection protocols. Plates were read on the MESO SECTOR 5600.
Data analysis was performed by subtracting negative control values from all wells and determining percent of control using the positive control values; the IC50 was determined with a four-parameter logistic fit model as shown in Equation 4.

[3] = target: Recombinant human JAK2 kinase domain protein (Residues 812-1132) (Homo sapiens, UniProt O60674); test: JAK2 biochemical assay (LabChip mobility shift, Ki); conditions: Biochem JAK2 Ki
Sequence of Recombinant human JAK2 kinase domain protein (Residues 812-1132) (O60674 812-1132): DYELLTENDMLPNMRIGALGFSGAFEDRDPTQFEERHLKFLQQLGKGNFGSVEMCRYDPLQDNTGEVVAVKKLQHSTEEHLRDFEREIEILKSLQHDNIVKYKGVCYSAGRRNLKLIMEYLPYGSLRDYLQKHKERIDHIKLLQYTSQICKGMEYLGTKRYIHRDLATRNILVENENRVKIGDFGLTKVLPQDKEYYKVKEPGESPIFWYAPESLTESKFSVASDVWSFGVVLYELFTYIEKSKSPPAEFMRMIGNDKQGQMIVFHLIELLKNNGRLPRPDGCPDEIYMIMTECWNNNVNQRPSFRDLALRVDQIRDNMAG

SMILES	pKi [1]	pKi [3]	pIC50 [2]
CN1CCCC1Cn1cc(NC(=O)c2cnn3cccnc23)c(-c2cc(Oc3cccc(C4CNCCO4)c3)ccc2OC(F)F)n1 (racemic) [Example 41, N-[3-[2-(difluoromethoxy)-5-(3-morpholin-2-ylphenoxy)phenyl]-1-[[rac-(2R)-1-methylpyrrolidin-2-yl]methyl]pyrazol-4-yl]pyrazolo[1,5-a]pyrimidine-3-carboxamide]	8.85	8.36	6.68
Cc1ccc(Oc2ccc(OC(F)F)c(-c3nn(CC4CCCN4C)cc3NC(=O)c3cnn4cccnc34)c2)cc1C(=O)N(C)C (racemic) [Example 51, N-[3-[2-(difluoromethoxy)-5-[3-(dimethylcarbamoyl)-4-methyl-phenoxy]phenyl]-1-[[rac-(2R)-1-methylpyrrolidin-2-yl]methyl]pyrazol-4-yl]pyrazolo[1,5-a]pyrimidine-3-carboxamide]	8.89	8.74	7.35
Cc1ccc(Oc2ccc(OC(F)F)c(-c3nn(CCN[C@H]4CCCOC4)cc3NC(=O)c3cnn4cccnc34)c2)cc1C(=O)N(C)C (racemic) [Example 83, N-[3-[2-(difluoromethoxy)-5-[3-(dimethylcarbamoyl)-4-methyl-phenoxy]phenyl]-1-[2-[[rac-(3R)-tetrahydropyran-3-yl]amino]ethyl]pyrazol-4-yl]pyrazolo[1,5-a]pyrimidine-3-carboxamide]	8.77	9.00	6.82
Cc1ccc(Oc2ccc(OC(F)F)c(-c3nn(C[C@@H]4C[C@@H](F)CN4C)cc3NC(=O)c3cnn4cccnc34)c2)cc1C(=O)N(C)C (racemic) [Example 89, N-[3-[2-(difluoromethoxy)-5-[3-(dimethylcarbamoyl)-4-methyl-phenoxy]phenyl]-1-[[rac-(2R,4S)-4-fluoro-l-methyl-pyrrolidin-2-yl]methyl]pyrazol-4-yl]pyrazolo[1,5-a]pyrimidine-3-carboxamide]	8.92	8.89	6.92
Cn1cc(NC(=O)c2cnn3cccnc23)c(-c2cc(Oc3cccc(CN4CCOC[C@@H]4CO)c3)ccc2OC(F)F)n1 (racemic) [Example 93, N-[3-[2-(difluoromethoxy)-5-[3-[[rac-(3R)-3-(hydroxymethyl)morpholin-4-yl]methyl]phenoxy]phenyl]-1-methyl-pyrazol-4-yl]pyrazolo[1,5-a]pyrimidine-3-carboxamide]	8.92	9.19	7.05
Cn1cc(NC(=O)c2cnn3cccnc23)c(-c2cc(Oc3cnn(C4CCNC4)c3)ccc2OC(F)F)n1 (racemic) [Example 139, N-[3-[2-(difluoromethoxy)-5-[1-[rac-(3R)-pyrrolidin-3-yl]pyrazol-4-yl]oxy-phenyl]-1-methyl-pyrazol-4-yl]pyrazolo[1,5-a]pyrimidine-3-carboxamide]	8.70	8.82	7.15
CN1CCC(n2cc(Oc3ccc(OC(F)F)c(-c4nn(C)cc4NC(=O)c4cnn5cccnc45)c3)cn2)C1 (racemic) [Example 140, N-[3-[2-(difluoromethoxy)-5-[1-[rac-(3S)-1-methylpyrrolidin-3-yl]pyrazol-4-yl]oxy-phenyl]-1-methyl-pyrazol-4-yl]pyrazolo[1,5-a]pyrimidine-3-carboxamide]	8.59	8.72	7.36
Cn1cc(NC(=O)c2cnn3cccnc23)c(-c2cc(Oc3cnn(CCN4CCOCC4)c3)ccc2OC(F)F)n1 [Example 68, N-[3-[2-(difluoromethoxy)-5-[1-(2-morpholinoethyl)pyrazol-4-yl]oxy-phenyl]-1-methyl-pyrazol-4-yl]pyrazolo[1,5-a]pyrimidine-3-carboxamide]	8.21	8.54	
CCCN(CCCO)Cc1ccc(Oc2ccc(OC(F)F)c(-c3nn(C)cc3NC(=O)c3cnn4cccnc34)c2)cc1 [Example 161, N-(3-(2-(difluoromethoxy)-5-(4-(((3-hydroxypropyl) (propyl)amino)methyl)phenoxy)phenyl)-1-methyl-1H-pyrazol-4-yl)pyrazolo[1,5-a]pyrimidine-3-carboxamide]	8.22	8.66	
Cn1cc(NC(=O)c2cnn3cccnc23)c(-c2cc(Oc3cnn(CCC4CO4)c3)ccc2OC(F)F)n1 (stereo not drawn) [Example 215, N-[3-[2-(difluoromethoxy)-5-[1-[2-(oxiran-2-yl)ethyl]pyrazol-4-yl]oxy-phenyl]-1-methyl-pyrazol-4-yl]pyrazolo[1,5-a]pyrimidine-3-carboxamide]	8.72	8.96	

More lines, in order of rising pKi [1], values ahead:

pKi [1]	pKi [3]	SMILES	pIC50 [2]
8.92	9.15	Cc1ccc(Oc2ccc(OC(F)F)c(-c3nn(CCN[C@H]4CCOC4)cc3NC(=O)c3cnn4cccnc34)c2)cc1C(=O)N(C)C (racemic) [Example 58, N-[3-[2-(difluoromethoxy)-5-[3-(dimethylcarbamoyl)-4-methyl-phenoxy]phenyl]-1-[2-[[rac-(3R)-tetrahydrofuran-3-yl]amino]ethyl]pyrazol-4-yl]pyrazolo[1,5-a]pyrimidine-3-carboxamide]	7.48
8.96	9.17	Cn1cc(NC(=O)c2cnn3cccnc23)c(-c2cc(Oc3cnn(CCBr)c3)ccc2OC(F)F)n1 [Example 214, N-[3-[5-[1-(2-bromoethyl)pyrazol-4-yl]oxy-2-(difluoromethoxy)phenyl]-1-methyl-pyrazol-4-yl]pyrazolo[1,5-a]pyrimidine-3-carboxamide]	
9.21		CNC(=O)c1cncc(Oc2ccc(OC(F)F)c(-c3nn(C)cc3NC(=O)c3cnn4cccnc34)c2)c1 [Example 158, N-[3-[2-(difluoromethoxy)-5-[[5-(methylcarbamoyl)-3-pyridyl]oxy]phenyl]-1-methyl-pyrazol-4-yl]pyrazolo[1,5-a]pyrimidine-3-carboxamide]	7.43
9.26	8.85	CN1CCC[C@H]1Cn1cc(NC(=O)c2cnn3cccnc23)c(-c2cc(Oc3cccc(CC#N)c3)ccc2OC(F)F)n1 (racemic) [Example 37, N-[3-[5-[3-(cyanomethyl)phenoxy]-2-(difluoromethoxy)phenyl]-1-[[rac-(2R)-1-methylpyrrolidin-2-yl]methyl]pyrazol-4-yl]pyrazolo[1,5-a]pyrimidine-3-carboxamide]	7.80
9.28	9.42	Cn1cc(NC(=O)c2cnn3cccnc23)c(-c2cc(Oc3cccc(C4CNCCO4)c3)ccc2OC(F)F)n1 (racemic) [Example 38, N-[3-[2-(difluoromethoxy)-5-[3-[rac-(2R)-morpholin-2-yl]phenoxy]phenyl]-1-methyl-pyrazol-4-yl]pyrazolo[1,5-a]pyrimidine-3-carboxamide]	7.66
9.43	9.07	CN1CCC[C@H]1Cn1cc(NC(=O)c2cnn3cccnc23)c(-c2cc(Oc3ccccc3)ccc2OC(F)F)n1 (racemic) [Example 31, N-[3-[2-(difluoromethoxy)-5-phenoxy-phenyl]-1-[[rac-(2R)-1-methylpyrrolidin-2-yl]methyl]pyrazol-4-yl]pyrazolo[1,5-a]pyrimidine-3-carboxamide]	8.04
9.43	9.41	Cn1cc(NC(=O)c2cnn3cccnc23)c(-c2cc(Oc3cccc([C@H]4CNCCO4)c3)ccc2OC(F)F)n1 (racemic) [Example 42, N-[3-[2-(difluoromethoxy)-5-[3-[rac-(2S)-morpholin-2-yl]phenoxy]phenyl]-1-methyl-pyrazol-4-yl]pyrazolo[1,5-a]pyrimidine-3-carboxamide]	7.96
9.46	9.62	C[C@H](O)Cn1cc(Oc2ccc(OC(F)F)c(-c3nn(C)cc3NC(=O)c3cnn4cccnc34)c2)cn1 (racemic) [Example 120, N-[3-[2-(difluoromethoxy)-5-[1-[rac-(2R)-2-hydroxypropyl]pyrazol-4-yl]oxy-phenyl]-1-methyl-pyrazol-4-yl]pyrazolo[1,5-a]pyrimidine-3-carboxamide]	7.72
9.74	10.02	O=C(Nc1c[nH]nc1-c1cc(Oc2ccccc2)ccc1OC(F)F)c1cnn2cccnc12 [Example 1, N-[3-[2-(difluoromethoxy)-5-phenoxy-phenyl]-1H-pyrazol-4-yl]pyrazolo[1,5-a]pyrimidine-3-carboxamide]	
